Measured values as given in PubChem BioAssay (NCI).
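1) Cells in 96-well plates. 2) Compound, 48 h, 5 concentrations. 3) Linear interpolation between surrounding doses. 4) Unreached endpoint = highest concentration. Definition used: TGI = concentration required for complete inhibition of growth.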

How the values were obtained:
Assay in all cases: NCI tumour cell line growth inhibition, 48 h
A498 renal = system: A498 renal
HOP-92 NSCLC = system: HOP-92 NSCLC
P388 leukemia = system: P388 leukemia
786-0 renal = system: 786-0 renal
A549 NSCLC = system: A549 NSCLC
ACHN renal = system: ACHN renal
CAKI-1 renal = system: CAKI-1 renal
CCRF-CEM leukemia = system: CCRF-CEM leukemia
COLO 205 colon = system: COLO 205 colon
DLD-1 colon = system: DLD-1 colon
DMS 273 small cell lung = system: DMS 273 small cell lung
EKVX NSCLC = system: EKVX NSCLC
HCC-2998 colon = system: HCC-2998 colon
HCT-116 colon = system: HCT-116 colon
HCT-15 colon = system: HCT-15 colon
HL-60(TB) leukemia = system: HL-60(TB) leukemia
HOP-18 NSCLC = system: HOP-18 NSCLC
HOP-62 NSCLC = system: HOP-62 NSCLC
HT29 colon = system: HT29 colon
K-562 leukemia = system: K-562 leukemia
KM12 colon = system: KM12 colon
KM20L2 colon = system: KM20L2 colon
LXFL 529 NSCLC = system: LXFL 529 NSCLC
M14 melanoma = system: M14 melanoma
M19-MEL melanoma = system: M19-MEL melanoma
MALME-3M melanoma = system: MALME-3M melanoma
MOLT-4 leukemia = system: MOLT-4 leukemia
NCI-H226 lung = system: NCI-H226 lung
NCI-H23 lung = system: NCI-H23 lung
NCI-H460 lung = system: NCI-H460 lung
NCI-H522 lung = system: NCI-H522 lung
OVCAR-3 ovarian = system: OVCAR-3 ovarian
OVCAR-4 ovarian = system: OVCAR-4 ovarian
OVCAR-8 ovarian = system: OVCAR-8 ovarian
RPMI-8226 leukemia = system: RPMI-8226 leukemia
RXF 393 renal = system: RXF 393 renal
RXF-631 renal = system: RXF-631 renal
SF-268 CNS = system: SF-268 CNS
SF-295 CNS = system: SF-295 CNS
SF-539 CNS = system: SF-539 CNS
SK-MEL-2 melanoma = system: SK-MEL-2 melanoma
SK-MEL-28 melanoma = system: SK-MEL-28 melanoma
SK-MEL-5 melanoma = system: SK-MEL-5 melanoma
SN12C renal = system: SN12C renal
SNB-19 CNS = system: SNB-19 CNS
SNB-75 CNS = system: SNB-75 CNS
SR leukemia = system: SR leukemia
SW-620 colon = system: SW-620 colon
TK-10 renal = system: TK-10 renal
U251 CNS = system: U251 CNS
UACC-257 melanoma = system: UACC-257 melanoma
UACC-62 melanoma = system: UACC-62 melanoma
UO-31 renal = system: UO-31 renal
XF 498 CNS = system: XF 498 CNS
DMS 114 small cell lung = system: DMS 114 small cell lung
IGROV1 ovarian = system: IGROV1 ovarian
LOX IMVI melanoma = system: LOX IMVI melanoma
OVCAR-5 ovarian = system: OVCAR-5 ovarian
SK-OV-3 ovarian = system: SK-OV-3 ovarian
SNB-78 CNS = system: SNB-78 CNS

Cc1nc(=O)n2c(c1C(=O)Nc1ccc(Cl)cc1)NCC2
TGI (A498 renal): > 100 µM | TGI (HOP-92 NSCLC): > 100 µM | TGI (P388 leukemia): > 31.6 µM

CS(=O)(=O)N(N(CCCl)S(=O)(=O)c1ccccc1)S(C)(=O)=O
TGI (786-0 renal): > 100 µM | TGI (A549 NSCLC): > 100 µM | TGI (ACHN renal): > 100 µM | TGI (CAKI-1 renal): > 100 µM | TGI (CCRF-CEM leukemia): > 100 µM | TGI (COLO 205 colon): > 100 µM | TGI (DLD-1 colon): > 100 µM | TGI (DMS 273 small cell lung): > 100 µM | TGI (EKVX NSCLC): > 100 µM | TGI (HCC-2998 colon): > 100 µM | TGI (HCT-116 colon): > 100 µM | TGI (HCT-15 colon): > 100 µM | TGI (HL-60(TB) leukemia): > 100 µM | TGI (HOP-18 NSCLC): > 100 µM | TGI (HOP-62 NSCLC): > 100 µM | TGI (HOP-92 NSCLC): > 100 µM | TGI (HT29 colon): > 100 µM | TGI (K-562 leukemia): > 100 µM | TGI (KM12 colon): > 100 µM | TGI (KM20L2 colon): > 100 µM | TGI (LXFL 529 NSCLC): > 100 µM | TGI (M14 melanoma): > 100 µM | TGI (M19-MEL melanoma): > 100 µM | TGI (MALME-3M melanoma): > 100 µM | TGI (MOLT-4 leukemia): > 100 µM | TGI (NCI-H226 lung): > 100 µM | TGI (NCI-H23 lung): > 100 µM | TGI (NCI-H460 lung): > 100 µM | TGI (NCI-H522 lung): > 100 µM | TGI (OVCAR-3 ovarian): > 100 µM | TGI (OVCAR-4 ovarian): > 100 µM | TGI (OVCAR-8 ovarian): > 100 µM | TGI (RPMI-8226 leukemia): > 100 µM | TGI (RXF 393 renal): > 100 µM | TGI (RXF-631 renal): > 100 µM | TGI (SF-268 CNS): > 100 µM | TGI (SF-295 CNS): > 100 µM | TGI (SF-539 CNS): > 100 µM | TGI (SK-MEL-2 melanoma): > 100 µM | TGI (SK-MEL-28 melanoma): > 100 µM | TGI (SK-MEL-5 melanoma): > 100 µM | TGI (SN12C renal): > 100 µM | TGI (SNB-19 CNS): > 100 µM | TGI (SNB-75 CNS): > 100 µM | TGI (SR leukemia): > 100 µM | TGI (SW-620 colon): > 100 µM | TGI (TK-10 renal): > 100 µM | TGI (U251 CNS): > 100 µM | TGI (UACC-257 melanoma): > 100 µM | TGI (UACC-62 melanoma): > 100 µM | TGI (UO-31 renal): > 100 µM | TGI (XF 498 CNS): > 100 µM

COC(=O)CCC(=O)CC(=O)C(=O)Nc1c(Cl)cc([N+](=O)[O-])cc1Cl
TGI (786-0 renal): > 100 µM | TGI (A498 renal): > 100 µM | TGI (A549 NSCLC): > 100 µM | TGI (ACHN renal): > 100 µM | TGI (CAKI-1 renal): > 100 µM | TGI (CCRF-CEM leukemia): > 100 µM | TGI (COLO 205 colon): > 100 µM | TGI (DLD-1 colon): > 100 µM | TGI (DMS 114 small cell lung): 77.9 µM | TGI (DMS 273 small cell lung): > 100 µM | TGI (EKVX NSCLC): > 100 µM | TGI (HCC-2998 colon): > 100 µM | TGI (HCT-116 colon): > 100 µM | TGI (HCT-15 colon): > 100 µM | TGI (HL-60(TB) leukemia): > 100 µM | TGI (HOP-18 NSCLC): > 100 µM | TGI (HOP-62 NSCLC): > 100 µM | TGI (HOP-92 NSCLC): > 100 µM | TGI (HT29 colon): > 100 µM | TGI (IGROV1 ovarian): > 100 µM | TGI (K-562 leukemia): > 100 µM | TGI (KM12 colon): > 100 µM | TGI (KM20L2 colon): > 100 µM | TGI (LOX IMVI melanoma): > 100 µM | TGI (LXFL 529 NSCLC): > 100 µM | TGI (M14 melanoma): > 100 µM | TGI (M19-MEL melanoma): > 100 µM | TGI (MALME-3M melanoma): > 100 µM | TGI (MOLT-4 leukemia): > 100 µM | TGI (NCI-H226 lung): > 100 µM | TGI (NCI-H23 lung): > 100 µM | TGI (NCI-H460 lung): > 100 µM | TGI (NCI-H522 lung): > 100 µM | TGI (OVCAR-3 ovarian): > 100 µM | TGI (OVCAR-4 ovarian): > 100 µM | TGI (OVCAR-5 ovarian): > 100 µM | TGI (OVCAR-8 ovarian): > 100 µM | TGI (RPMI-8226 leukemia): 88.1 µM | TGI (RXF 393 renal): > 100 µM | TGI (RXF-631 renal): > 100 µM | TGI (SF-268 CNS): > 100 µM | TGI (SF-295 CNS): > 100 µM | TGI (SF-539 CNS): > 100 µM | TGI (SK-MEL-2 melanoma): > 100 µM | TGI (SK-MEL-28 melanoma): > 100 µM | TGI (SK-MEL-5 melanoma): > 100 µM | TGI (SK-OV-3 ovarian): > 100 µM | TGI (SN12C renal): > 100 µM | TGI (SNB-19 CNS): > 100 µM | TGI (SNB-75 CNS): > 100 µM | TGI (SNB-78 CNS): > 100 µM | TGI (SR leukemia): 61.7 µM | TGI (TK-10 renal): > 100 µM | TGI (U251 CNS): > 100 µM | TGI (UACC-257 melanoma): > 100 µM | TGI (UACC-62 melanoma): > 100 µM | TGI (UO-31 renal): > 100 µM | TGI (XF 498 CNS): > 100 µM
